The record followed here is paper PMC10526248, “Zeolitic Imidazolate Framework-8 Composite-Based Enzyme-Linked Aptamer Assay for the Sensitive Detection of Deoxynivalenol” (Biosensors, 2023).

The structures appear in SMILES notation.

For the assay, the target named is T1, horseradish peroxidase (HRP) (Armoracia rusticana, UniProt P00433).
T1 construct: gene PRXC1A; free enzyme for this row
T1 sequence (P00433 31-338): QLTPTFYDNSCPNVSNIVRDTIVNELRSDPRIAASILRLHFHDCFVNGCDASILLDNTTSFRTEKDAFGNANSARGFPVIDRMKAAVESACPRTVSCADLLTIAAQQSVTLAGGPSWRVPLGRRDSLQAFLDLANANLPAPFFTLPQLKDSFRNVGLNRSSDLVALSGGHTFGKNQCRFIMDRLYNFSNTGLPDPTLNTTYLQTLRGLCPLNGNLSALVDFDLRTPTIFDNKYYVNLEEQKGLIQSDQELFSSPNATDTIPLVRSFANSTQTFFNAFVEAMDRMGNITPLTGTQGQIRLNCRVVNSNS
Put plainly: TMB oxidation, absorbance at […] nm after acid stop. The assay is classed as biochemical. The following applies: free HRP; co-substrate H2O2; oxidation also seen with ZIF-8-encapsulated HRP.

In the case of `Cc1cc(-c2cc(C)c(N)c(C)c2)cc(C)c1N` [TMB, 3,3′,5,5′-Tetramethylbenzidine], the “TMB oxidation, absorbance at 450 nm after acid stop” value was “HRP, HRP@ZIF-8, HRP&Au@ZIF-8 and HRP&Au@ZIF-8/cDNA were all able to catalyze TMB oxidation”.
